We go through 19 compounds from patent publication US8580794B2 (AbbVie Inc., priority 2009, dated 2013).

SMILES strings stand for the structures. pKi: −log10 of the molar value.

Chain of GST-Bc1-2 (P10415 whole entry): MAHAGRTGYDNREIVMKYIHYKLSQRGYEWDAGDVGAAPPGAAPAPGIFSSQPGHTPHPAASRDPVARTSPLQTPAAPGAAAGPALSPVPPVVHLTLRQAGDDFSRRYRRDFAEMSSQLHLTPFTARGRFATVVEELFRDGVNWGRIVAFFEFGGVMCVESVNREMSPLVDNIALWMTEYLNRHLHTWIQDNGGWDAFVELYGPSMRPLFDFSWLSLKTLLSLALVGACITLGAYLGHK

This test addresses GST-Bc1-2 (Homo sapiens, UniProt P10415). As to the kind of experiment: Time Resolved-Fluorescence Resonance Energy Transfer (TR-FRET) Bcl-2 binding assay with F-Bak peptide probe. As to conditions: GST-Bcl-2 1 nM, F-Bak probe 100 nM, Tb-anti-GST 1 nM; '<' = below limit of detection; read-out: TR-FRET Bcl-2 Binding Ki.
Take `CC1(C)CCC(CN2CCN(c3ccc(C(=O)NS(=O)(=O)c4cnc(OCCC5CCCO5)c(Cl)c4)c(Oc4cnc5[nH]ccc5c4)c3)CC2)=C(c2ccc(Cl)cc2)C1` (stereo not shown) [Example 289, 4-(4-{[2-(4-chlorophenyl)-4,4-dimethylcyclohex-1-en-1-yl]methyl}piperazin-1-yl)-N-({5-chloro-6-[2-(tetrahydrofuran-2-yl)ethoxy]pyridin-3-yl}sulfonyl)-2-(1H-pyrrolo[2,3-b]pyridin-5-yloxy)benzamide]: the pKi is 10.05.
As for `CC1CN(c2ccc(C(=O)NS(=O)(=O)c3ccc(NCC4CCOCC4)c([N+](=O)[O-])c3)c(Oc3cnc4[nH]ccc4c3)c2)CCN1CC1=C(c2ccc(Cl)cc2)CC(C)(C)CC1` (stereo not shown) [Example 290, 4-(4-{[2-(4-chlorophenyl)-4,4-dimethylcyclohex-1-en-1-yl]methyl}-3-methylpiperazin-1-yl)-N-({3-nitro-4-[(tetrahydro-2H-pyran-4-ylmethyl)amino]phenyl}sulfonyl)-2-(1H-pyrrolo[2,3-b]pyridin-5-yloxy)benzamide], the pKi is more than 11.00.
As for `CC1(C)CCC(CN2CCN(c3ccc(C(=O)NS(=O)(=O)c4ccc(NCCCNC5CC5)c([N+](=O)[O-])c4)c(Oc4cnc5[nH]ccc5c4)c3)CC2)=C(c2ccc(Cl)cc2)C1` [Example 291, 4-(4-{[2-(4-chlorophenyl)-4,4-dimethylcyclohex-1-en-1-yl]methyl}piperazin-1-yl)-N-[(4-{[3-(cyclopropylamino)propyl]amino}-3-nitrophenyl)sulfonyl]-2-(1H-pyrrolo[2,3-b]pyridin-5-yloxy)benzamide], the pKi is more than 11.00.
With `COCCOc1ncc(S(=O)(=O)NC(=O)c2ccc(N3CCN(CC4=C(c5ccc(Cl)cc5)CC(C)(C)CC4)CC3)cc2Oc2cnc3[nH]ccc3c2)cc1Cl` [Example 292, N-{[5-chloro-6-(2-methoxyethoxy)pyridin-3-yl]sulfonyl}-4-(4-{[2-(4-chlorophenyl)-4,4-dimethylcyclohex-1-en-1-yl]methyl}piperazin-1-yl)-2-(1H-pyrrolo[2,3-b]pyridin-5-yloxy)benzamide], the pKi is 9.72.
`CC1(C)CCC(CN2CCN(c3ccc(C(=O)NS(=O)(=O)c4cnc(OCC5CCOCC5)c(F)c4)c(Oc4cnc5[nH]ccc5c4)c3)CC2)=C(c2ccc(Cl)cc2)C1` [Example 293, 4-(4-{[2-(4-chlorophenyl)-4,4-dimethylcyclohex-1-en-1-yl]methyl}piperazin-1-yl)-N-{[5-fluoro-6-(tetrahydro-2H-pyran-4-ylmethoxy)pyridin-3-yl]sulfonyl}-2-(1H-pyrrolo[2,3-b]pyridin-5-yloxy)benzamide]: the pKi is 10.03.
With `COCC(=O)N1CCC(COc2ccc(S(=O)(=O)NC(=O)c3ccc(N4CCN(CC5=C(c6ccc(Cl)cc6)CC(C)(C)CC5)CC4)cc3Oc3cnc4[nH]ccc4c3)cc2Cl)CC1` [Example 294, N-[(3-chloro-4-{[1-(methoxyacetyl)piperidin-4-yl]methoxy}phenyl)sulfonyl]-4-(4-{[2-(4-chlorophenyl)-4,4-dimethylcyclohex-1-en-1-yl]methyl}piperazin-1-yl)-2-(1H-pyrrolo[2,3-b]pyridin-5-yloxy)benzamide], the pKi was 10.34.
As for `CN(C)CC(=O)N1CCC(COc2ccc(S(=O)(=O)NC(=O)c3ccc(N4CCN(CC5=C(c6ccc(Cl)cc6)CC(C)(C)CC5)CC4)cc3Oc3cnc4[nH]ccc4c3)cc2Cl)CC1` [Example 295, N-[(3-chloro-4-{[1-(N,N-dimethylglycyl)piperidin-4-yl]methoxy}phenyl)sulfonyl]-4-(4-{[2-(4-chlorophenyl)-4,4-dimethylcyclohex-1-en-1-yl]methyl}piperazin-1-yl)-2-(1H-pyrrolo[2,3-b]pyridin-5-yloxy)benzamide], the pKi is more than 11.00.
As to `CC1(C)CCC(CC2CCN(c3ccc(C(=O)NS(=O)(=O)c4ccc(NCC5CCOCC5)c([N+](=O)[O-])c4)c(Oc4cnc5[nH]ccc5c4)c3)CC2)C(c2ccc(Cl)cc2)C1` (stereo not shown) [Example 296, 4-(4-{[2-(4-chlorophenyl)-4,4-dimethylcyclohexyl]methyl}piperidin-1-yl)-N-({3-nitro-4-[(tetrahydro-2H-pyran-4-ylmethyl)amino]phenyl}sulfonyl)-2-(1H-pyrrolo[2,3-b]pyridin-5-yloxy)benzamide], the negative logarithm of the Ki (pKi) was 9.29.
For `CC1(C)CCC(CN2CCN(c3ccc(C(=O)NS(=O)(=O)c4cnc(OCC5CCOCC5)c(C(F)(F)F)c4)c(Oc4cnc5[nH]ccc5c4)c3)CC2)=C(c2ccc(Cl)cc2)C1` [Example 297, 4-(4-{[2-(4-chlorophenyl)-4,4-dimethylcyclohex-1-en-1-yl]methyl}piperazin-1-yl)-2-(1H-pyrrolo[2,3-b]pyridin-5-yloxy)-N-{[6-(tetrahydro-2H-pyran-4-ylmethoxy)-5-(trifluoromethyl)pyridin-3-yl]sulfonyl}benzamide], the pKi was 9.76.
For the compound `CC1(C)CCC(CN2CCN(c3ccc(C(=O)NS(=O)(=O)c4cnc(OC[C@H]5CC[C@H](O)CC5)c(Cl)c4)c(Oc4cnc5[nH]ccc5c4)c3)CC2)=C(c2ccc(Cl)cc2)C1` [Example 298, N-({5-chloro-6-[(trans-4-hydroxycyclohexyl)methoxy]pyridin-3-yl}sulfonyl)-4-(4-{[2-(4-chlorophenyl)-4,4-dimethylcyclohex-1-en-1-yl]methyl}piperazin-1-yl)-2-(1H-pyrrolo[2,3-b]pyridin-5-yloxy)benzamide], the pKi is more than 11.00.
For `CC1(C)CCC(CN2CCN(c3ccc(C(=O)NS(=O)(=O)c4ccc(OCC5(F)CCOCC5)c(C#N)c4)c(Oc4cnc5[nH]ccc5c4)c3)CC2)=C(c2ccc(Cl)cc2)C1` [Example 299, 4-(4-{[2-(4-chlorophenyl)-4,4-dimethylcyclohex-1-en-1-yl]methyl}piperazin-1-yl)-N-({3-cyano-4-[(4-fluorotetrahydro-2H-pyran-4-yl)methoxy]phenyl}sulfonyl)-2-(1H-pyrrolo[2,3-b]pyridin-5-yloxy)benzamide], the pKi is 10.41.
Take `CC1(C)CCC(CC2CCN(c3ccc(C(=O)NS(=O)(=O)c4cnc(OCC5(O)CCC(F)(F)CC5)c(Cl)c4)c(Oc4cnc5[nH]ccc5c4)c3)CC2)=C(c2ccc(Cl)cc2)C1` [Example 302, N-({5-chloro-6-[(4,4-difluoro-1-hydroxycyclohexyl)methoxy]pyridin-3-yl}sulfonyl)-4-(4-{[2-(4-chlorophenyl)-4,4-dimethylcyclohex-1-en-1-yl]methyl}piperidin-1-yl)-2-(1H-pyrrolo[2,3-b]pyridin-5-yloxy)benzamide]: the pKi is 9.48.
In the case of `CC1(C)CCC(CN2CCN(c3ccc(C(=O)NS(=O)(=O)c4ccc(OC[C@H]5CC[C@H](N6CCOCC6)CC5)c(Cl)c4)c(Oc4cnc5[nH]ccc5c4)c3)CC2)=C(c2ccc(Cl)cc2)C1` [Example 303, N-[(3-chloro-4-{[trans-4-(morpholin-4-yl)cyclohexyl]methoxy}phenyl)sulfonyl]-4-(4-{[2-(4-chlorophenyl)-4,4-dimethylcyclohex-1-en-1-yl]methyl}piperazin-1-yl)-2-(1H-pyrrolo[2,3-b]pyridin-5-yloxy)benzamide] it was 10.36.
As for `CC1(C)CCC(CN2CCN(c3ccc(C(=O)NS(=O)(=O)c4ccc(OC[C@H]5CC[C@H](O)CC5)c(Cl)c4)c(Oc4cnc5[nH]ccc5c4)c3)CC2)=C(c2ccc(Cl)cc2)C1` [Example 305, N-({3-chloro-4-[(trans-4-hydroxycyclohexyl)methoxy]phenyl}sulfonyl)-4-(4-{[2-(4-chlorophenyl)-4,4-dimethylcyclohex-1-en-1-yl]methyl}piperazin-1-yl)-2-(1H-pyrrolo[2,3-b]pyridin-5-yloxy)benzamide], the pKi was 10.48.
`CC1(C)CCC(CN2CCN(c3ccc(C(=O)NS(=O)(=O)c4ccc(NCC5CCOCC5)c(Cl)c4)c(Oc4cnc5[nH]ccc5c4)c3)CC2)=C(c2ccc(Cl)cc2)C1` [Example 306, 4-(4-{[2-(4-chlorophenyl)-4,4-dimethylcyclohex-1-en-1-yl]methyl}piperazin-1-yl)-N-({3-chloro-4-[(tetrahydro-2H-pyran-4-ylmethyl)amino]phenyl}sulfonyl)-2-(1H-pyrrolo[2,3-b]pyridin-5-yloxy)benzamide]: the pKi was 8.68.
To `CC1(C)CCC(CN2CCN(c3ccc(C(=O)NS(=O)(=O)c4ccc(OCC5(F)CCOCC5)c(C(F)(F)F)c4)c(Oc4cnc5[nH]ccc5c4)c3)CC2)=C(c2ccc(Cl)cc2)C1` [Example 307, 4-(4-{[2-(4-chlorophenyl)-4,4-dimethylcyclohex-1-en-1-yl]methyl}piperazin-1-yl)-N-({4-[(4-fluorotetrahydro-2H-pyran-4-yl)methoxy]-3-(trifluoromethyl)phenyl}sulfonyl)-2-(1H-pyrrolo[2,3-b]pyridin-5-yloxy)benzamide] belongs 9.89; to `CC1(C)CCC(CN2CCN(c3ccc(C(=O)NS(=O)(=O)c4ccc(NCCCN(CC(F)(F)F)C5CC5)c([N+](=O)[O-])c4)c(Oc4cnc5[nH]ccc5c4)c3)CC2)=C(c2ccc(Cl)cc2)C1` [Example 308, 4-(4-{[2-(4-chlorophenyl)-4,4-dimethylcyclohex-1-en-1-yl]methyl}piperazin-1-yl)-N-{[4-({3-[cyclopropyl(2,2,2-trifluoroethyl)amino]propyl}amino)-3-nitrophenyl]sulfonyl}-2-(1H-pyrrolo[2,3-b]pyridin-5-yloxy)benzamide], 9.85; to `CC1(C)CCC(CN2CCN(c3ccc(C(=O)NS(=O)(=O)c4ccc(OCC5CCN(C6COC6)CC5)c(Cl)c4)c(Oc4cnc5[nH]ccc5c4)c3)CC2)=C(c2ccc(Cl)cc2)C1` [Example 309, N-[(3-chloro-4-{[1-(oxetan-3-yl)piperidin-4-yl]methoxy}phenyl)sulfonyl]-4-(4-{[2-(4-chlorophenyl)-4,4-dimethylcyclohex-1-en-1-yl]methyl}piperazin-1-yl)-2-(1H-pyrrolo[2,3-b]pyridin-5-yloxy)benzamide], 10.64.
For the compound `CC1(C)CCC(CN2CCN(c3ccc(C(=O)NS(=O)(=O)c4cc(F)c(OCC5(F)CCOCC5)c(F)c4)c(Oc4cnc5[nH]ccc5c4)c3)CC2)=C(c2ccc(Cl)cc2)C1` [Example 310, 4-(4-{[2-(4-chlorophenyl)-4,4-dimethylcyclohex-1-en-1-yl]methyl}piperazin-1-yl)-N-({3,5-difluoro-4-[(4-fluorotetrahydro-2H-pyran-4-yl)methoxy]phenyl}sulfonyl)-2-(1H-pyrrolo[2,3-b]pyridin-5-yloxy)benzamide], the pKi is 9.78.
